What all share (experiment): inhibition of tumour cell growth, NCI panel, 48 h
Assay [1] has as its system ACHN renal.
In assay [2] the test system is UACC-62 melanoma.
Assay [3] has as its system NCI-H460 lung.
Assay [4] relates to SK-MEL-28 melanoma.
For assay [5], the system named is HCT-116 colon.
The test system of assay [6] is MOLT-4 leukemia.
Assay [7] deals with SK-MEL-2 melanoma.
In assay [8] the test system is HCT-15 colon.
The test system of assay [9] is A498 renal.
Assay [10] has as its system 786-0 renal.
For assay [11], the system named is SW-620 colon.
In assay [12] the test system is OVCAR-5 ovarian.
Assay [13] relates to SF-539 CNS.
For assay [14], the system named is OVCAR-4 ovarian.
Assay [15] concerns EKVX NSCLC.
In assay [16] the test system is MDA-MB-231 breast.
Assay [17] deals with K-562 leukemia.
The test system of assay [18] is RPMI-8226 leukemia.
Assay [19] deals with UO-31 renal.

In PubChem BioAssay (NCI) one finds TGI data, which are given here for 13 compounds.

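In this assay, cells in 96-well plates receive the compound at five concentrations for 48 hours. Endpoints are linearly interpolated between the surrounding concentrations. TGI: total growth inhibition.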

Take `COc1ccc(P2(=S)Oc3ccccc3-c3ccccc3O2)cc1`: the TGI in [1] is > 100 µM; in assay [2], > 100 µM; in assay [3], > 100 µM; in [4], > 100 µM; in assay [5], > 38.7 µM; in [6], > 100 µM. In addition, the TGI was > 100 µM in assay [7]; > 100 µM in assay [8]; 4.01 µM in [9]; > 100 µM in assay [10]; > 100 µM in [11]; > 100 µM in [12]. Further, the TGI is 0.537 µM in [13]; > 100 µM in [14]; > 100 µM in [15]; > 100 µM in assay [16]; > 100 µM in assay [17].
With `O=P1(Oc2ccc(Cl)cc2Cl)Oc2ccc3ccccc3c2-c2c(ccc3ccccc23)O1`, the TGI in [2] was 70.4 µM; in [3], > 90.6 µM; in assay [4], > 85.4 µM; in assay [18], 48 µM; in assay [5], > 75.1 µM; in [6], 55.6 µM. For the same compound, the TGI in assay [7] is 36 µM; in assay [8], > 77.1 µM; in [9], > 95.4 µM; in assay [11], > 100 µM; in assay [19] it was 41.3 µM; in assay [12], > 100 µM. Also, the TGI in assay [13] is 43 µM; in [14] it was 94.2 µM; in assay [15], > 67.3 µM; in assay [17], > 100 µM.
On to `CC(=O)NC1=C(NC(C)(C)C)C(=O)c2ccccc2C1=O`, for which the TGI is > 100 µM in assay [1]; 27.3 µM in [2]; 41.1 µM in [3]; 43.1 µM in assay [4]; 37.1 µM in assay [18]; 64.2 µM in [5]. For the same compound, the TGI in assay [6] amounted to 26.7 µM; in [7] it was 42.9 µM; in [8], 34.5 µM; in assay [9], 50.2 µM; in [10], 11.6 µM; in assay [11] it was 30.1 µM. The TGI in assay [19] was 32.9 µM; in assay [12], > 100 µM; in assay [13] it was 33.3 µM; in assay [14] it was 36.6 µM; in assay [15] it was 99.2 µM; in [17], 25.2 µM.
Consider `Nn1c(CCCCCCCCc2nnc(COc3ccc4ccccc4c3O)n2N)nnc1COc1ccc2ccccc2c1O`, for which the TGI in assay [1] is > 100 µM; in assay [2] it was > 100 µM; in [3], > 100 µM; in [4], > 100 µM; in [18], 99.2 µM; in assay [5], 29.3 µM. Besides, the TGI in [6], in assay [7], in assay [8], in [9], in [10] and in assay [11] was > 100 µM throughout. The TGI is > 100 µM in assay [19]; 37 µM in assay [12]; > 100 µM in assay [14]; > 100 µM in assay [15]; 76.9 µM in [16]; > 100 µM in assay [17].
Regarding `CC(=O)OC[C@]1(C)CCCC2(C)C1CCC1C=C(C)[C@H]3CCC12C3` (stereo partly specified), the TGI in assay [1], in [2], in assay [3], in assay [4], in assay [18] and in [5] was > 100 µM each time. Besides, the TGI in assay [6], in [8], in assay [10], in assay [11], in assay [19] and in assay [12] was > 100 µM each time. Besides, the TGI in [13] was 66.8 µM; in assay [14], > 100 µM; in assay [17] it was > 100 µM.
Turning to `COc1cccc(/C=C2\CCCc3ccccc3C2=O)c1`, the TGI in assay [1] is > 100 µM; in [2] it was 25.8 µM; in assay [3], 34.2 µM; in [4], 41.1 µM; in assay [18], 64.1 µM; in assay [5], 27.9 µM. Moreover, the TGI in [6] was > 100 µM; in assay [7] it was 27.4 µM; in assay [8], 26 µM; in assay [10], 27.4 µM; in assay [11], 35.5 µM; in assay [19] it was 29.7 µM. Further, the TGI in assay [12] was 38 µM; in assay [13], 32 µM; in assay [14], 28.5 µM; in assay [15], 50.2 µM; in [16], 32.5 µM; in [17], 48.2 µM.
Consider `N#CC(C#N)=C/C=C(\Sc1c(Cl)c(Cl)nc(Cl)c1Cl)c1ccc(Cl)cc1`, for which the TGI was 37.8 µM in assay [1]; 30 µM in assay [2]; > 100 µM in assay [3]; 49.7 µM in [4]; > 100 µM in [18]; 34.8 µM in assay [5]. In addition, the TGI in [6] was > 100 µM; in assay [7], > 100 µM; in assay [8], 30.1 µM; in assay [10], 27.5 µM; in assay [11], 25.9 µM; in [19], > 100 µM. In addition, the TGI is 44.6 µM in assay [12]; 41.8 µM in assay [13]; > 100 µM in assay [14]; > 100 µM in [15]; 60 µM in assay [16]; > 100 µM in assay [17].
In the case of `Cc1nc(C(N)=S)sc1C(=O)CC(=O)C(=O)Nc1ccccc1[N+](=O)[O-]`, the TGI in assay [1], in [2], in assay [3], in assay [4], in assay [18] and in assay [5] was > 100 µM each time. Moreover, the TGI in assay [6], in [7], in [8], in assay [9], in [10] and in assay [11] was > 100 µM in each case. In addition, the TGI in assay [19], in assay [12], in assay [13], in [14], in assay [15] and in [17] was > 100 µM in each case.
Turning to `Cc1ccc(/C(O)=C/c2nc3c(nc2NC24CC5CC(CC(C5)C2)C4)c(=O)oc2ccccc23)cc1`, the TGI in assay [1], in assay [2], in [3], in assay [4], in assay [18] and in assay [5] was > 100 µM throughout. Also, the TGI in assay [6], in assay [7], in [8], in assay [10], in [11] and in assay [19] was > 100 µM in each case. The TGI in assay [12], in assay [13], in [15] and in assay [17] was > 100 µM throughout.
Consider `Cc1ccccc1NC(=O)c1c(C)oc2c1C(=O)c1ccccc1C2=O`, for which the TGI was > 100 µM in [1]; 49.8 µM in assay [2]; > 100 µM in assay [3]; > 100 µM in [4]; 60.9 µM in [18]; > 100 µM in assay [5]. In addition, the TGI in [6] is 47.4 µM; in assay [7] it was > 72.3 µM; in assay [8], > 74.8 µM; in assay [9] it was > 100 µM; in [10], > 100 µM; in assay [11], > 57.9 µM. The TGI in assay [19] was > 100 µM; in assay [12], > 100 µM; in assay [13], > 68.5 µM; in [14], > 100 µM; in assay [15], > 100 µM; in [17], 57.9 µM.
For `O=S(CC1(O)CCCCC1)c1ccccc1` (stereo unspecified), the TGI in assay [1] is > 100 µM; in assay [2], > 100 µM; in assay [3], > 100 µM; in [4], > 100 µM; in assay [18], 2.32 µM; in assay [5] it was > 100 µM. In addition, the TGI in [6], in assay [7], in assay [8], in assay [10], in assay [11] and in assay [19] was > 100 µM throughout. Besides, the TGI in assay [12], in assay [14], in assay [15], in assay [16] and in assay [17] was > 100 µM throughout.
On to `Oc1c(Cl)c(Cl)c(O)c(CCNc2ccc3ncccc3c2)c1Cl`, for which the TGI was 28 µM in [1]; 23.8 µM in [2]; 41.8 µM in assay [3]; 54.6 µM in assay [4]; 41.9 µM in [5]; > 100 µM in [6]. Moreover, the TGI in [7] was 22.8 µM; in [8] it was 30 µM; in [10] it was 34.3 µM; in assay [11], 95.6 µM; in assay [19] it was 31.2 µM; in [12], 40.4 µM. The TGI in assay [13] is 39.4 µM; in [14] it was > 100 µM; in assay [15], 36 µM; in assay [17], > 100 µM.
`O=C(Nc1ccccc1)c1cc2ccccc2c(N=Nc2ccc([N+](=O)[O-])cc2)c1O`: the TGI in [1], in assay [2], in assay [4], in assay [18], in assay [5] and in assay [6] was > 100 µM each time. Also, the TGI in assay [7], in assay [8], in assay [10], in assay [11], in assay [19] and in assay [12] was > 100 µM throughout. The TGI in [14], in assay [15], in [16] and in assay [17] was > 100 µM each time.
